Test results taken from patent publication US9346815B2, “5-chloro-2-difluoromethoxyphenyl pyrazolopyrimidine compounds, compositions and methods of use thereof” (Genentech, Inc., priority 2014, dated 2016).

Experiments:
[1] = system: JAK1-dependent STAT6 phosphorylation downstream of IL-13 stimulation in TF-1 human erythroleukemia cells; test: JAK1 pathway assay in TF-1 cells (IL-13-pSTAT6, MSD); format: cell-based; details: Homo sapiens, TF-1, TF-1 cells, read-out: IL13-pSTAT6 EC50_TF-1
Summary of the method: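 Compound preincubation lasted 1 hr for BEAS-2B cells in complete growth medium and 30 min for GM-CSF-starved TF-1 cells in serum-free medium. EC50 values were determined.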

[2] = molecular target: isolated recombinant JAK1 kinase domain (Homo sapiens (Human), UniProt P23458); test: JAK1 enzyme assay (Caliper LabChip, peptide phosphorylation); format: biochemical; details: isolated recombinant JAK1 kinase domain, 25 μM ATP
[3] = molecular target: isolated recombinant JAK2 kinase domain (Homo sapiens (Human), UniProt O60674); test: JAK2 enzyme assay (Caliper LabChip, peptide phosphorylation); format: biochemical; details: 25 μM ATP
Chain of isolated recombinant JAK2 kinase domain (O60674 849-1124): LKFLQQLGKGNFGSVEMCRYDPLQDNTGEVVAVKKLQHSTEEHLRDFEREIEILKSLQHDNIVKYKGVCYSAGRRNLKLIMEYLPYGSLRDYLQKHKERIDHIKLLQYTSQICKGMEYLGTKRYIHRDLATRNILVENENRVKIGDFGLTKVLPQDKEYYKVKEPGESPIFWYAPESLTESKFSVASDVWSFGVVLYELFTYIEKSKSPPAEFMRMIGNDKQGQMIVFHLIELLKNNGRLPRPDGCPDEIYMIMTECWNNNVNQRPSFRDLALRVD

Chain of isolated recombinant JAK1 kinase domain (P23458 875-1153): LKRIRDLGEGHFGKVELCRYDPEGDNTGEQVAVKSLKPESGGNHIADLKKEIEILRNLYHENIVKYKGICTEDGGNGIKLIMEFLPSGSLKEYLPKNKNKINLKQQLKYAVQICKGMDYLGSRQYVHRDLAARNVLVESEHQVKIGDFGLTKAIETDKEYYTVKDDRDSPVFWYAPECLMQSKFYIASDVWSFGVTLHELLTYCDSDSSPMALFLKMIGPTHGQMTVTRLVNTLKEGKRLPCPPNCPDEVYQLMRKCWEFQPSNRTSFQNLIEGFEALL

SMILES	EC50 [1] [nM]	Ki [2] [nM]	Ki [3] [nM]
CN(CC1(C)COC1)C1CCN(C(=O)Cn2cc(NC(=O)c3cnn4cccnc34)c(-c3cc(Cl)ccc3OC(F)F)n2)CC1 [Example 96, N-[3-[5-chloro-2-(difluoromethoxy)phenyl]-1-[2-[4-[methyl-[(3-methyloxetan-3-yl)methyl]amino]-1-piperidyl]-2-oxo-ethyl]pyrazol-4-yl]pyrazolo[1,5-a]pyrimidine-3-carboxamide]	4.1	0.63	1.4
CN(CCC1CCCCC1)C1CCN(C(=O)Cn2cc(NC(=O)c3cnn4cccnc34)c(-c3cc(Cl)ccc3OC(F)F)n2)CC1 [Example 101, N-[3-[5-chloro-2-(difluoromethoxy)phenyl]-1-[2-[4-[2-cyclohexyl-ethyl(methyl)amino]-1-piperidyl]-2-oxo-ethyl]pyrazol-4-yl]pyrazolo[1,5-a]pyrimidine-3-carboxamide]	16.5	0.67	1.77
O=C(Nc1cn(CC(=O)N2CCC(N(CCc3ccccc3)CC(F)(F)F)CC2)nc1-c1cc(Cl)ccc1OC(F)F)c1cnn2cccnc12 [Example 103, N-[3-[5-chloro-2-(difluoromethoxy)phenyl]-1-[2-oxo-2-[4-[2-phenylethyl(2,2,2-trifluoroethyl)amino]-1-piperidyl]ethyl]pyrazol-4-yl]pyrazolo[1,5-a]pyrimidine-3-carboxamide]	265	3.98	7.95
CCCCN(CCOc1ccc(C)cc1)C1CCN(C(=O)Cn2cc(NC(=O)c3cnn4cccnc34)c(-c3cc(Cl)ccc3OC(F)F)n2)CC1 [Example 108, N-[1-[2-[4-[butyl-[2-(4-methylphenoxy)ethyl]amino]-1-piperidyl]-2-oxo-ethyl]-3-[5-chloro-2-(difluoromethoxy)phenyl]pyrazol-4-yl]pyrazolo[1,5-a]pyrimidine-3-carboxamide]	43.1	2.47	3.66
C=CCN(CCOc1ccc(C)cc1)C1CCN(C(=O)Cn2cc(NC(=O)c3cnn4cccnc34)c(-c3cc(Cl)ccc3OC(F)F)n2)CC1 [Example 109, N-[1-[2-[4-[allyl-[2-(4-methylphenoxy)ethyl]amino]-1-piperidyl]-2-oxo-ethyl]-3-[5-chloro-2-(difluoromethoxy)phenyl]pyrazol-4-yl]pyrazolo[1,5-a]pyrimidine-3-carboxamide]	42.9	3.22	7.3
O=C(Nc1cn(CC(=O)N2CCC(CN3CCC(F)(F)CC3)(c3ccccc3)CC2)nc1-c1cc(Cl)ccc1OC(F)F)c1cnn2cccnc12 [Example 111, N-[3-[5-chloro-2-(difluoromethoxy)phenyl]-1-[2-[4-[(4,4-difluoro-1-piperidyl)methyl]-4-phenyl-1-piperidyl]-2-oxo-ethyl]pyrazol-4-yl]pyrazolo[1,5-a]pyrimidine-3-carboxamide]	203	3.1	10.6
CN(CC1Oc2ccccc2O1)C1CCN(C(=O)Cn2cc(NC(=O)c3cnn4cccnc34)c(-c3cc(Cl)ccc3OC(F)F)n2)CC1 [Example 112, N-[1-[2-[4-[1,3-benzodioxol-2-ylmethyl(methyl)amino]-1-piperidyl]-2-oxo-ethyl]-3-[5-chloro-2-(difluoromethoxy)phenyl]pyrazol-4-yl]pyrazolo[1,5-a]pyrimidine-3-carboxamide]	96.3	0.45	1.01
CN(Cc1cccc(Oc2ccccc2)c1)C1CCN(C(=O)Cn2cc(NC(=O)c3cnn4cccnc34)c(-c3cc(Cl)ccc3OC(F)F)n2)CC1 [Example 113, N-[3-[5-chloro-2-(difluoromethoxy)phenyl]-1-[2-[4-[methyl-[(3-phenoxyphenyl)methyl]amino]-1-piperidyl]-2-oxo-ethyl]pyrazol-4-yl]pyrazolo[1,5-a]pyrimidine-3-carboxamide]	30.6	1.19	2.15
CN(CC1(C#N)CCCCC1)C1CCN(C(=O)Cn2cc(NC(=O)c3cnn4cccnc34)c(-c3cc(Cl)ccc3OC(F)F)n2)CC1 [Example 114, N-[3-[5-chloro-2-(difluoromethoxy)phenyl]-1-[2-[4-[(1-cyanocyclohexyl)methyl-methyl-amino]-1-piperidyl]-2-oxo-ethyl]pyrazol-4-yl]pyrazolo[1,5-a]pyrimidine-3-carboxamide]	15.3	0.52	1.34
CCCCN(CC(F)(F)F)C1CCN(C(=O)Cn2cc(NC(=O)c3cnn4cccnc34)c(-c3cc(Cl)ccc3OC(F)F)n2)CC1 [Example 115, N-[1-[2-[4-[butyl(2,2,2-trifluoroethyl)amino]-1-piperidyl]-2-oxo-ethyl]-3-[5-chloro-2-(difluoromethoxy)phenyl]pyrazol-4-yl]pyrazolo[1,5-a]pyrimidine-3-carboxamide]	57.7	1.28	2.48

More lines, now with the values ahead:

EC50 [1] [nM]	Ki [2] [nM]	Ki [3] [nM]	SMILES
149	0.75	1.15	O=C(Nc1cn(CC(=O)N2CCC(NCCc3ccc(O)cc3)CC2)nc1-c1cc(Cl)ccc1OC(F)F)c1cnn2cccnc12 [Example 91, N-[3-[5-chloro-2-(difluoromethoxy)phenyl]-1-[2-[4-[2-(4-hydroxyphenyl)ethyl-amino]-1-piperidyl]-2-oxo-ethyl]pyrazol-4-yl]pyrazolo[1,5-a]pyrimidine-3-carboxamide]
55.6	0.92	2.03	O=C(Nc1cn(CC(=O)N2CCC(NCCc3ccc(Cl)cc3)CC2)nc1-c1cc(Cl)ccc1OC(F)F)c1cnn2cccnc12 [Example 92, N-[3-[5-chloro-2-(difluoromethoxy)phenyl]-1-[2-[4-[2-(4-chlorophenyl)ethylamino]-1-piperidyl]-2-oxo-ethyl]pyrazol-4-yl]pyrazolo[1,5-a]pyrimidine-3-carboxamide]
17.3	0.8	2.6	COc1ccc(CCN(C)C2CCN(C(=O)Cn3cc(NC(=O)c4cnn5cccnc45)c(-c4cc(Cl)ccc4OC(F)F)n3)CC2)cc1 [Example 95, N-[3-[5-chloro-2-(difluoromethoxy)phenyl]-1-[2-[4-[2-(4-methoxyphenyl)ethyl-methyl-amino]-1-piperidyl]-2-oxo-ethyl]pyrazol-4-yl]pyrazolo[1,5-a]pyrimidine-3-carboxamide]
187	1.16	1.97	CN(CCc1ccc(C(F)(F)F)cc1)C1CCN(C(=O)Cn2cc(NC(=O)c3cnn4cccnc34)c(-c3cc(Cl)ccc3OC(F)F)n2)CC1 [Example 97, N-[3-[5-chloro-2-(difluoromethoxy)phenyl]-1-[2-[4-[methyl-[2-[4-(trifluoromethyl)phenyl]ethyl]amino]-1-piperidyl]-2-oxo-ethyl]pyrazol-4-yl]pyrazolo[1,5-a]pyrimidine-3-carboxamide]
5.4	0.84	2.01	CN(CCOc1ccccc1)C1CCN(C(=O)Cn2cc(NC(=O)c3cnn4cccnc34)c(-c3cc(Cl)ccc3OC(F)F)n2)CC1 [Example 100, N-[3-[5-chloro-2-(difluoromethoxy)phenyl]-1-[2-[4-[methyl(2-phenoxyethyl)amino]-1-piperidyl]-2-oxo-ethyl]pyrazol-4-yl]pyrazolo[1,5-a]pyrimidine-3-carboxamide]
20.2	0.93	2.11	CN(CCOc1ccc(Br)cc1)C1CCN(C(=O)Cn2cc(NC(=O)c3cnn4cccnc34)c(-c3cc(Cl)ccc3OC(F)F)n2)CC1 [Example 104, N-[1-[2-[4-[2-(4-bromophenoxy)ethyl-methyl-amino]-1-piperidyl]-2-oxo-ethyl]-3-[5-chloro-2-(difluoromethoxy)phenyl]pyrazol-4-yl]pyrazolo[1,5-a]pyrimidine-3-carboxamide]
50	1.45	3.17	CN(CCOc1ccccc1Br)C1CCN(C(=O)Cn2cc(NC(=O)c3cnn4cccnc34)c(-c3cc(Cl)ccc3OC(F)F)n2)CC1 [Example 105, N-[1-[2-[4-[2-(2-bromophenoxy)ethyl-methyl-amino]-1-piperidyl]-2-oxo-ethyl]-3-[5-chloro-2-(difluoromethoxy)phenyl]pyrazol-4-yl]pyrazolo[1,5-a]pyrimidine-3-carboxamide]
15.5	1.09	2.29	CN(CCOc1ccccc1Cl)C1CCN(C(=O)Cn2cc(NC(=O)c3cnn4cccnc34)c(-c3cc(Cl)ccc3OC(F)F)n2)CC1 [Example 106, N-[3-[5-chloro-2-(difluoromethoxy)phenyl]-1-[2-[4-[2-(2-chlorophenoxy)ethyl-methyl-amino]-1-piperidyl]-2-oxo-ethyl]pyrazol-4-yl]pyrazolo[1,5-a]pyrimidine-3-carboxamide]
17.6	0.97	2.49	CN(CCOc1ccc(Cl)cc1)C1CCN(C(=O)Cn2cc(NC(=O)c3cnn4cccnc34)c(-c3cc(Cl)ccc3OC(F)F)n2)CC1 [Example 107, N-[3-[5-chloro-2-(difluoromethoxy)phenyl]-1-[2-[4-[2-(4-chlorophenoxy)ethyl-methyl-amino]-1-piperidyl]-2-oxo-ethyl]pyrazol-4-yl]pyrazolo[1,5-a]pyrimidine-3-carboxamide]
23.3	3.76	7.04	O=C(Nc1cn(CC(=O)N2CCC(N(Cc3ccccc3)CC(F)(F)F)CC2)nc1-c1cc(Cl)ccc1OC(F)F)c1cnn2cccnc12 [Example 116, N-[1-[2-[4-[benzyl(2,2,2-trifluoroethyl)amino]-1-piperidyl]-2-oxo-ethyl]-3-[5-chloro-2-(difluoromethoxy)phenyl]pyrazol-4-yl]pyrazolo[1,5-a]pyrimidine-3-carboxamide]
